Assay [1] deals with biotinylated human Gal-3 (hGal-3) (Homo sapiens, UniProt P17931). Put plainly: Competitive binding assay: biotinylated hGal-3 binding to microplate-adsorbed asialofetuin (ASF), spectrophotometric. The gist of the method:
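Serially diluted compounds competed with asialofetuin on the plate for biotinylated human Gal-3 during a 3 h incubation at 4° C. Streptavidin-peroxidase with ABTS gave the spectrophotometric signal. IC50 values were averaged over repeat runs.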

The next assay addresses human Gal-1 (hGal-1) (Homo sapiens, UniProt P09382). Briefly: Competitive binding assay: biotinylated hGal-1 binding to microplate-adsorbed asialofetuin (ASF), spectrophotometric. The following applies: hGal-1 binding to asialofetuin; Table 15; R and S epimers of selected Examples also listed; read-out: IC50 (Galectin-1 inhibition). The gist of the method: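 Spectrophotometric competition readout with ABTS after streptavidin-peroxidase (80 ng/mL, 1 h, 4 °C) detection of bound biotinylated hGal-1.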

Where [2] appears, read: Table 12, hGal-3, read-out: IC50 (Gal-3 inhibition).
Setting [3] is: Table 11, hGal-3, read-out: IC50 (Gal-3 inhibition).
Where [4] appears, read: Gal-3 inhibition, Table 5, read-out: IC50.
Where [5] appears, read: Gal-3 inhibition, Table 4, read-out: IC50.

The term IC50 denotes the concentration that gives 50% inhibition.

Read-outs that look alike come from different tables or passages of the source.

Chain of biotinylated human Gal-3 (hGal-3) (P17931 whole entry): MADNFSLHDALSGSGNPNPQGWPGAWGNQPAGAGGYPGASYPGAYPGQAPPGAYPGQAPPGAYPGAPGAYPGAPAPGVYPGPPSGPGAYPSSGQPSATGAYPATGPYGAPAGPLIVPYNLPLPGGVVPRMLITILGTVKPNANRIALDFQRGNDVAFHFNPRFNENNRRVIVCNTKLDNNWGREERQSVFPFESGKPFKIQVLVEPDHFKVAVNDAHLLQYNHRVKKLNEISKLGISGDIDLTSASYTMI
Chain of human Gal-1 (hGal-1) (P09382 whole entry): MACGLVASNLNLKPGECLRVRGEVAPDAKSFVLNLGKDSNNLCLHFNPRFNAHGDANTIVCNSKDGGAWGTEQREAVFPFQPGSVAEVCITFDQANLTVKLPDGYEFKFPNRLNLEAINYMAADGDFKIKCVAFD

As to `CO[C@@H]1[C@@H](n2cc(-c3cc(F)c(F)c(F)c3)nn2)[C@@H](O)[C@@H](CO)O[C@H]1SC(C(=O)N1CCC(C)(C)CC1)C1(O)CCC(F)(F)CC1` (stereo partly drawn) [Example 2.44.245.I., 2-(4,4-Difluoro-1-hydroxycyclohexyl)-1-(4,4-dimethylpiperidin-1-yl)-2-(((2S,3R,4S,5R,6R)-5-hydroxy-6-(hydroxymethyl)-3-methoxy-4-(4-(3,4,5-trifluorophenyl)-1H-1,2,3-triazol-1-yl)tetrahydro-2H-pyran-2-yl)thio)ethan-1-one], the results for the IC50 (in assay [1] (setting [2]); on human Gal-1 (hGal-1)) were 90 nM and 210 nM, respectively.
With `CCN(C)C(=O)C(S[C@@H]1O[C@H](CO)[C@H](O)[C@H](n2cc(-c3cc(F)c(F)c(F)c3)nn2)[C@H]1O)C(C)C` (stereo partly drawn) [Example 2.53.203., 2-(((2S,3R,4S,5R,6R)-3,5-dihydroxy-6-(hydroxymethyl)-4-(4-(3,4,5-trifluorophenyl)-1H-1,2,3-triazol-1-yl)tetrahydro-2H-pyran-2-yl)thio)-N-ethyl-N,3-dimethylbutanamide, reference compound], the IC50 in assay [1] (Gal-3 inhibition, Table 1 (Reference Examples), read-out: IC50) is 7800 nM; at human Gal-1 (hGal-1), 35900 nM.
Consider `CCC(O)(CC)C(S[C@@H]1O[C@H](CO)[C@H](O)[C@H](n2cc(-c3cc(F)c(F)c(F)c3)nn2)[C@H]1O)C(=O)N(C)CC(C)(C)F` (stereo partly drawn) [Example 2.32.222., 2-(((2S,3R,4S,5R,6R)-3,5-Dihydroxy-6-(hydroxymethyl)-4-(4-(3,4,5-trifluorophenyl)-1H-1,2,3-triazol-1-yl)tetrahydro-2H-pyran-2-yl)thio)-3-ethyl-N-(2-fluoro-2-methylpropyl)-3-hydroxy-N-methylpentanamide], for which the IC50 was 360 nM in assay [1] (Table 6, hGal-3, read-out: IC50 (Gal-3 inhibition)) and 2060 nM at human Gal-1 (hGal-1).
As to `CCN(C)C(=O)C(S[C@@H]1O[C@H](CO)[C@H](O)[C@H](n2cc(-c3cc(C)cc(F)c3)nn2)[C@H]1O)C1(O)CCOCC1` (stereo partly drawn) [Example 20.41.203., N-ethyl-2-(((2S,3R,4S,5R,6R)-4-(4-(3-Fluoro-5-methylphenyl)-1H-1,2,3-triazol-1-yl)-3,5-dihydroxy-6-(hydroxymethyl)tetrahydro-2H-pyran-2-yl)thio)-2-(4-hydroxytetrahydro-2H-pyran-4-yl)-N-methylacetamide], the IC50 in assay [1] (setting [3]) is 60 nM; on human Gal-1 (hGal-1), 180 nM.
On to `CCN(C)C(=O)C(S[C@@H]1O[C@H](CO)[C@H](O)[C@H](n2cc(-c3cc(F)cc(F)c3)nn2)[C@H]1O)C1(O)CCOCC1` (stereo partly drawn) [Example 10.41.203., 2-(((2S,3R,4S,5R,6R)-4-(4-(3,5-Difluorophenyl)-1H-1,2,3-triazol-1-yl)-3,5-dihydroxy-6-(hydroxymethyl)tetrahydro-2H-pyran-2-yl)thio)-N-ethyl-2-(4-hydroxytetrahydro-2H-pyran-4-yl)-N-methylacetamide], for which the values for the IC50 (in assay [1] (setting [3]); on human Gal-1 (hGal-1)) were 100 nM and 270 nM, respectively.
With `CN(C(=O)[C@H](S[C@@H]1O[C@H](CO)[C@H](O)[C@H](n2cc(-c3cc(F)c(F)c(F)c3)nn2)[C@H]1O)C1(O)CCOCC1)C1COC1` [Example 2.41.235R., (R)-2-(((2S,3R,4S,5R,6R)-3,5-Dihydroxy-6-(hydroxymethyl)-4-(4-(3,4,5-trifluorophenyl)-1H-1,2,3-triazol-1-yl)tetrahydro-2H-pyran-2-yl)thio)-2-(4-hydroxytetrahydro-2H-pyran-4-yl)-N-methyl-N-(oxetan-3-yl)acetamide], the IC50 in assay [1] (setting [4]) turned out to be 2400 nM; on human Gal-1 (hGal-1), 6540 nM.
In the case of `CCN(C(=O)C(S[C@@H]1O[C@H](CO)[C@H](O)[C@H](n2cc(-c3cc(F)c(F)c(F)c3)nn2)[C@H]1O)C1(O)CCOCC1)c1ccccc1` (stereo partly drawn) [Example 2.41.232., 2-(((2S,3R,4S,5R,6R)-3,5-Dihydroxy-6-(hydroxymethyl)-4-(4-(3,4,5-trifluorophenyl)-1H-1,2,3-triazol-1-yl)tetrahydro-2H-pyran-2-yl)thio)-N-ethyl-2-(4-hydroxytetrahydro-2H-pyran-4-yl)-N-phenylacetamide], the concentration for half-maximal inhibition (IC50) is 90 nM in assay [1] (Table 9, hGal-3, read-out: IC50 (Gal-3 inhibition)) and 60 nM at human Gal-1 (hGal-1).
With “(S)-2-(((2S,3R,4S,5R,6R)-3,5-Dihydroxy-6-(hydroxymethyl)-4-(4-(3,4,5-trifluorophenyl)-1H-1,2,3-triazol-1-yl)tetrahydro-2H-pyran-2-yl)thio)-2-(1-hydroxycyclohexyl)-N-methyl-N-(pyridin-2-ylmethyl)acetamide [Example 2.39.224S.]”, the IC50 was found to be 60 nM in assay [1] (setting [4]) and 70 nM at human Gal-1 (hGal-1).
For `CN(CC(F)(F)F)C(=O)C(S[C@@H]1O[C@H](CO)[C@H](O)[C@H](n2cc(-c3cc(F)c(F)c(F)c3)nn2)[C@H]1O)C1(O)CCOCC1` (stereo partly drawn) [Example 2.41.219., 2-(((2S,3R,4S,5R,6R)-3,5-Dihydroxy-6-(hydroxymethyl)-4-(4-(3,4,5-trifluorophenyl)-1H-1,2,3-triazol-1-yl)tetrahydro-2H-pyran-2-yl)thio)-2-(4-hydroxytetrahydro-2H-pyran-4-yl)-N-methyl-N-(2,2,2-trifluoroethyl)acetamide], the IC50 stood at 110 nM in assay [1] (setting [4]) and 210 nM at human Gal-1 (hGal-1).
In the case of `CCN(C(=O)C(S[C@@H]1O[C@H](CO)[C@H](O)[C@H](n2cc(-c3cc(F)c(F)c(F)c3)nn2)[C@H]1O)C1(O)CCOCC1)C1CCC1` (stereo partly drawn) [Example 2.41.237.], the IC50 in assay [1] (Table 10, hGal-3, read-out: IC50 (Gal-3 inhibition)) worked out at 30 nM; on human Gal-1 (hGal-1) it was 20 nM.
As for “2-(((2S,3R,4S,5R,6R)-3,5-Dihydroxy-6-(hydroxymethyl)-4-(4-(3,4,5-trifluorophenyl)-1H-1,2,3-triazol-1-yl)tetrahydro-2H-pyran-2-yl)thio)-2-(4-hydroxy-1-methylpiperidin-4-yl)-N-isobutyl-N-methylacetamide [Example 2.40.200.]”, the half-maximal inhibitory concentration (IC50) stood at 80 nM in assay [1] (setting [5]) and 190 nM on human Gal-1 (hGal-1).
Turning to `CN(CC1CC1)C(=O)[C@@H](S[C@@H]1O[C@H](CO)[C@H](O)[C@H](n2cc(-c3cc(F)c(F)c(F)c3)nn2)[C@H]1O)C1(O)CC(F)(F)C1` [Example 2.33.218S., (S)-N-(Cyclopropylmethyl)-2-(3,3-difluoro-1-hydroxycyclobutyl)-2-(((2S,3R,4S,5R,6R)-3,5-dihydroxy-6-(hydroxymethyl)-4-(4-(3,4,5-trifluorophenyl)-1H-1,2,3-triazol-1-yl)tetrahydro-2H-pyran-2-yl)thio)-N-methylacetamide], the IC50 in assay [1] (setting [4]) was 40 nM; at human Gal-1 (hGal-1), 60 nM.
Consider `O=C([C@H](S[C@@H]1O[C@H](CO)[C@H](O)[C@H](n2cc(-c3cc(F)c(F)c(F)c3)nn2)[C@H]1O)C1(O)CCOCC1)N1CCCCC1` [Example 2.41.208R., (R)-2-(((2S,3R,4S,5R,6R)-3,5-Dihydroxy-6-(hydroxymethyl)-4-(4-(3,4,5-trifluorophenyl)-1H-1,2,3-triazol-1-yl)tetrahydro-2H-pyran-2-yl)thio)-2-(4-hydroxytetrahydro-2H-pyran-4-yl)-1-(piperidin-1-yl)ethan-1-one], for which the IC50 stood at 1650 nM in assay [1] (setting [5]) and 32300 nM on human Gal-1 (hGal-1).
For the compound `CCN(C)C(=O)C(S[C@@H]1O[C@H](CO)[C@H](O)[C@H](n2cc(-c3cc(F)c(C)c(F)c3)nn2)[C@H]1O)C1(O)CCOCC1` (stereo partly drawn) [Example 3.41.203., 2-(((2S,3R,4S,5R,6R)-4-(4-(3,5-Difluoro-4-methylphenyl)-1H-1,2,3-triazol-1-yl)-3,5-dihydroxy-6-(hydroxymethyl)tetrahydro-2H-pyran-2-yl)thio)-N-ethyl-2-(4-hydroxytetrahydro-2H-pyran-4-yl)-N-methylacetamide], the IC50 in assay [1] (setting [3]) was 40 nM; at human Gal-1 (hGal-1), 680 nM.
`CCN(C)C(=O)C(S[C@@H]1O[C@H](CO)[C@H](O)[C@H](n2cc(-c3cc(F)c(F)c(F)c3)nn2)[C@H]1O)C1(O)CCN(S(C)(=O)=O)CC1` (single isomer, unassigned) [Example 2.47.203S.]: the IC50 in assay [1] (Table 8, hGal-3, read-out: IC50 (Gal-3 inhibition)) amounted to 10 nM; on human Gal-1 (hGal-1), 30 nM.
On to `CO[C@@H]1[C@@H](n2cc(-c3cc(F)c(F)c(F)c3)nn2)[C@@H](O)[C@@H](CO)O[C@H]1SC(C(=O)N1CCC(F)(F)CC1)C1(O)CCC2(CC1)COC2` (stereo partly drawn) [Example 2.70.226.I., 1-(4,4-Difluoropiperidin-1-yl)-2-(((2S,3R,4S,5R,6R)-5-hydroxy-6-(hydroxymethyl)-3-methoxy-4-(4-(3,4,5-trifluorophenyl)-1H-1,2,3-triazol-1-yl)tetrahydro-2H-pyran-2-yl)thio)-2-(7-hydroxy-2-oxaspiro[3.5]nonan-7-yl)ethan-1-one], for which the IC50 in assay [1] (Table 13, hGal-3, read-out: IC50 (Gal-3 inhibition)) turned out to be 110 nM; at human Gal-1 (hGal-1) it was 200 nM.
In the case of `CCC(CC)NC(=O)C(S[C@@H]1O[C@H](CO)[C@H](O)[C@H](n2cc(-c3cc(F)c(F)c(F)c3)nn2)[C@H]1OC)C1(O)CCC(F)(F)CC1` (stereo partly drawn) [Example 2.44.250.I., 2-(4,4-Difluoro-1-hydroxycyclohexyl)-2-(((2S,3R,4S,5R,6R)-5-hydroxy-6-(hydroxymethyl)-3-methoxy-4-(4-(3,4,5-trifluorophenyl)-1H-1,2,3-triazol-1-yl)tetrahydro-2H-pyran-2-yl)thio)-N-(pentan-3-yl)acetamide], the IC50 in assay [1] (setting [2]) turned out to be 50 nM; at human Gal-1 (hGal-1), 270 nM.
Take `CCC(O)C(S[C@@H]1O[C@H](CO)[C@H](O)[C@H](n2cc(-c3cc(F)c(F)c(F)c3)nn2)[C@H]1O)C(=O)N(C)CC` (stereo partly drawn) [Example 2.60.203., 2-(((2S,3R,4S,5R,6R)-3,5-Dihydroxy-6-(hydroxymethyl)-4-(4-(3,4,5-trifluorophenyl)-1H-1,2,3-triazol-1-yl)tetrahydro-2H-pyran-2-yl)thio)-N-ethyl-3-hydroxy-N-methylpentanamide]: the IC50 was 170 nM in assay [1] (Gal-3 inhibition, Table 7, read-out: IC50) and 1020 nM at human Gal-1 (hGal-1).

Source of the values: patent US12410208B2, “(2-acetamidyl)thio-beta-D-galactopyranoside derivatives” (Idorsia Pharmaceuticals Ltd, priority 2020, dated 2025).
